# Experimental data reported in US7244431B2, “Allergy vaccines and their preparation” (priority 2000, dated 2007).
# Legend:
# [1] = system: IgE antibodies in sera from birch pollen allergic patients; test: ELISA detection of peptide- and rBet v 1-specific IgE antibodies; assay type: binding, human
# Method: Birch pollen allergic patients suffering from allergic rhinoconjunctivitis and/or asthma to birch pollen and related allergens were selected according to case history indicative for seasonal birch pollinosis and characterized by skin prick testing with birch pollen extract and serological CAP RAST (Pharmacia Diagnostics, Uppsala, Sweden) testing. Total IgE levels in the sera were determined by CAP RIST measurements (Pharmacia). […] Sera from 60 birch pollen allergic patients and a non-atopic individual were used for IgE competition studies. The birch pollen allergic patients group consisted of 25 males and 35 females with a mean age of 37 years (ranging from 19-60 years) (Table 2).
# Subsequently, plates were incubated with 1:3 diluted sera from 60 birch pollen allergic patients and from a non-atopic individual overnight at 4° C. Bound IgE antibodies were detected with a 1:1000 diluted alkaline-phosphatase-coupled mouse monoclonal anti-human IgE antibody (Pharmingen, San Diego, Calif.).
# [2] = system: birch pollen allergic patients; test: Skin prick testing of allergic patients; assay type: in vivo, human
# Method: SPTs were performed on the individuals forearms as described ([…]. et al. (1997) J. Clin Invest. 99, 1673-168; Dreborg S: (1989) J. Am. Acad. DerMatol. 21, 820-821). […] In addition standardized skin prick solutions (birch pollen extract and histamine) (Allergopharma, Reinbek, Germany) were tested. Reactions were recorded 20 minutes after SPT by photography and by transferring the ballpoint pen-surrounded wheal area with a scotch tape to paper.
compound,measurement,setting,value
"CGPGTIKKISFPEGFPFKYVKDRVDEVDHTN [Peptide P3, Bet v 1-derived synthetic peptide, position aa 50-79, one cysteine added]",IgE (OD),"[1]; serum of NHS, non-allergic control individual",— (Dashes indicate reactivities below the cut-off level (OD=0.050))
same,IgE (OD),[1]; serum of patient 1,— (Dashes indicate reactivities below the cut-off level (OD=0.050))
same,IgE (OD),[1]; serum of patient 2,— (Dashes indicate reactivities below the cut-off level (OD=0.050))
same,IgE (OD),[1]; serum of patient 3,— (Dashes indicate reactivities below the cut-off level (OD=0.050))
same,IgE (OD),[1]; serum of patient 4,— (Dashes indicate reactivities below the cut-off level (OD=0.050))
same,IgE (OD),[1]; serum of patient 5,— (Dashes indicate reactivities below the cut-off level (OD=0.050))
same,IgE (OD),[1]; serum of patient 6,— (Dashes indicate reactivities below the cut-off level (OD=0.050))
same,IgE (OD),[1]; serum of patient 7,— (Dashes indicate reactivities below the cut-off level (OD=0.050))
same,IgE (OD),[1]; serum of patient 8,— (Dashes indicate reactivities below the cut-off level (OD=0.050))
same,IgE (OD),[1]; serum of patient 9,— (Dashes indicate reactivities below the cut-off level (OD=0.050))
same,IgE (OD),[1]; serum of patient 10,— (Dashes indicate reactivities below the cut-off level (OD=0.050))
same,IgE (OD),[1]; serum of patient 11,— (Dashes indicate reactivities below the cut-off level (OD=0.050))
same,IgE (OD),[1]; serum of patient 12,— (Dashes indicate reactivities below the cut-off level (OD=0.050))
same,IgE (OD),[1]; serum of patient 13,— (Dashes indicate reactivities below the cut-off level (OD=0.050))
same,IgE (OD),[1]; serum of patient 14,— (Dashes indicate reactivities below the cut-off level (OD=0.050))
same,IgE (OD),[1]; serum of patient 15,— (Dashes indicate reactivities below the cut-off level (OD=0.050))
same,IgE (OD),[1]; serum of patient 16,— (Dashes indicate reactivities below the cut-off level (OD=0.050))
same,IgE (OD),[1]; serum of patient 17,— (Dashes indicate reactivities below the cut-off level (OD=0.050))
same,IgE (OD),[1]; serum of patient 18,— (Dashes indicate reactivities below the cut-off level (OD=0.050))
same,IgE (OD),[1]; serum of patient 19,— (Dashes indicate reactivities below the cut-off level (OD=0.050))
same,IgE (OD),[1]; serum of patient 20,— (Dashes indicate reactivities below the cut-off level (OD=0.050))
same,IgE (OD),[1]; serum of patient 21,— (Dashes indicate reactivities below the cut-off level (OD=0.050))
same,IgE (OD),[1]; serum of patient 22,— (Dashes indicate reactivities below the cut-off level (OD=0.050))
same,IgE (OD),[1]; serum of patient 23,— (Dashes indicate reactivities below the cut-off level (OD=0.050))
same,IgE (OD),[1]; serum of patient 24,— (Dashes indicate reactivities below the cut-off level (OD=0.050))
same,IgE (OD),[1]; serum of patient 25,— (Dashes indicate reactivities below the cut-off level (OD=0.050))
same,IgE (OD),[1]; serum of patient 26,— (Dashes indicate reactivities below the cut-off level (OD=0.050))
same,IgE (OD),[1]; serum of patient 27,— (Dashes indicate reactivities below the cut-off level (OD=0.050))
same,IgE (OD),[1]; serum of patient 28,— (Dashes indicate reactivities below the cut-off level (OD=0.050))
same,IgE (OD),[1]; serum of patient 29,— (Dashes indicate reactivities below the cut-off level (OD=0.050))
same,IgE (OD),[1]; serum of patient 30,— (Dashes indicate reactivities below the cut-off level (OD=0.050))
same,IgE (OD),[1]; serum of patient 31,— (Dashes indicate reactivities below the cut-off level (OD=0.050))
same,IgE (OD),[1]; serum of patient 32,— (Dashes indicate reactivities below the cut-off level (OD=0.050))
same,IgE (OD),[1]; serum of patient 33,— (Dashes indicate reactivities below the cut-off level (OD=0.050))
same,IgE (OD),[1]; serum of patient 34,— (Dashes indicate reactivities below the cut-off level (OD=0.050))
same,IgE (OD),[1]; serum of patient 35,— (Dashes indicate reactivities below the cut-off level (OD=0.050))
same,IgE (OD),[1]; serum of patient 36,— (Dashes indicate reactivities below the cut-off level (OD=0.050))
same,IgE (OD),[1]; serum of patient 37,— (Dashes indicate reactivities below the cut-off level (OD=0.050))
same,IgE (OD),[1]; serum of patient 38,— (Dashes indicate reactivities below the cut-off level (OD=0.050))
same,IgE (OD),[1]; serum of patient 39,— (Dashes indicate reactivities below the cut-off level (OD=0.050))
same,IgE (OD),[1]; serum of patient 40,— (Dashes indicate reactivities below the cut-off level (OD=0.050))
same,IgE (OD),[1]; serum of patient 41,— (Dashes indicate reactivities below the cut-off level (OD=0.050))
same,IgE (OD),[1]; serum of patient 42,— (Dashes indicate reactivities below the cut-off level (OD=0.050))
same,IgE (OD),[1]; serum of patient 43,— (Dashes indicate reactivities below the cut-off level (OD=0.050))
same,IgE (OD),[1]; serum of patient 44,— (Dashes indicate reactivities below the cut-off level (OD=0.050))
same,IgE (OD),[1]; serum of patient 45,— (Dashes indicate reactivities below the cut-off level (OD=0.050))
same,IgE (OD),[1]; serum of patient 46,— (Dashes indicate reactivities below the cut-off level (OD=0.050))
same,IgE (OD),[1]; serum of patient 47,— (Dashes indicate reactivities below the cut-off level (OD=0.050))
same,IgE (OD),[1]; serum of patient 48,— (Dashes indicate reactivities below the cut-off level (OD=0.050))
same,IgE (OD),[1]; serum of patient 49,— (Dashes indicate reactivities below the cut-off level (OD=0.050))
same,IgE (OD),[1]; serum of patient 50,— (Dashes indicate reactivities below the cut-off level (OD=0.050))
same,IgE (OD),[1]; serum of patient 51,— (Dashes indicate reactivities below the cut-off level (OD=0.050))
same,IgE (OD),[1]; serum of patient 52,— (Dashes indicate reactivities below the cut-off level (OD=0.050))
same,IgE (OD),[1]; serum of patient 53,— (Dashes indicate reactivities below the cut-off level (OD=0.050))
same,IgE (OD),[1]; serum of patient 54,— (Dashes indicate reactivities below the cut-off level (OD=0.050))
same,IgE (OD),[1]; serum of patient 55,— (Dashes indicate reactivities below the cut-off level (OD=0.050))
same,IgE (OD),[1]; serum of patient 56,— (Dashes indicate reactivities below the cut-off level (OD=0.050))
same,IgE (OD),[1]; serum of patient 57,— (Dashes indicate reactivities below the cut-off level (OD=0.050))
same,IgE (OD),[1]; serum of patient 58,— (Dashes indicate reactivities below the cut-off level (OD=0.050))
same,IgE (OD),[1]; serum of patient 59,— (Dashes indicate reactivities below the cut-off level (OD=0.050))
same,IgE (OD),[1]; serum of patient 60,— (Dashes indicate reactivities below the cut-off level (OD=0.050))
same,mean wheal diameter,"[2]; individual 1, 100 μg/ml",0 mm
same,mean wheal diameter,"[2]; individual 2, 100 μg/ml",0 mm
same,mean wheal diameter,"[2]; individual 3, 100 μg/ml",0 mm
same,mean wheal diameter,"[2]; individual 4, 100 μg/ml",0 mm
same,mean wheal diameter,"[2]; individual 5, 100 μg/ml",0 mm
same,mean wheal diameter,"[2]; individual 6 (allergic, without birch pollen allergy), 100 μg/ml",0 mm
"NCCc1c[nH]cn1 [histamine, reference compound]",mean wheal diameter,"[2]; individual 1, standardized skin prick solution",5 mm
same,mean wheal diameter,"[2]; individual 2, standardized skin prick solution",6 mm
same,mean wheal diameter,"[2]; individual 3, standardized skin prick solution",7 mm
same,mean wheal diameter,"[2]; individual 4, standardized skin prick solution",5 mm
same,mean wheal diameter,"[2]; individual 5, standardized skin prick solution",5.5 mm
same,mean wheal diameter,"[2]; individual 6 (without birch pollen allergy), standardized skin prick solution",4 mm
same,immediate skin reaction,[2]; standardized skin prick solutions,All individuals reacted
